Test results reported in ChEMBL document CHEMBL4507270 (2021).
Active and inactive are the calls of the source. No cut-off for these calls is given here.

Experiments:
[1] = molecular target: Sigma non-opioid intracellular receptor 1 (Homo sapiens) (UniProt Q99720); conditions: Compound concentration 10.0 uM
[2] = molecular target: Serine/threonine-protein kinase Nek2 (Homo sapiens) (UniProt P51955)
[3] = molecular target: Serine/threonine-protein kinase PAK 4 (Homo sapiens) (UniProt O96013)
[4] = tested on: Hepatocyte growth factor receptor (Homo sapiens), P08581 [M1250T]
[5] = molecular target: Vascular endothelial growth factor receptor 3 (Homo sapiens, UniProt P35916)
[6] = molecular target: Protein kinase C delta type (Homo sapiens) (UniProt Q05655)
[7] = molecular target: Rho-associated protein kinase 2 (Homo sapiens) (UniProt O75116)
[8] = molecular target: Serine/threonine-protein kinase Nek6 (Homo sapiens) (UniProt Q9HC98)
[9] = molecular target: Tyrosine-protein kinase Fer (Homo sapiens) (UniProt P16591)
[10] = molecular target: Dual specificity tyrosine-phosphorylation-regulated kinase 1A (Homo sapiens) (UniProt Q13627)
[11] = molecular target: Mitogen-activated protein kinase 1 (Homo sapiens) (UniProt P28482)
[12] = molecular target: Serine/threonine-protein kinase 10 (Homo sapiens, UniProt O94804)
Sequence of Serine/threonine-protein kinase 10 (O94804 whole entry, looked up, canonical isoform): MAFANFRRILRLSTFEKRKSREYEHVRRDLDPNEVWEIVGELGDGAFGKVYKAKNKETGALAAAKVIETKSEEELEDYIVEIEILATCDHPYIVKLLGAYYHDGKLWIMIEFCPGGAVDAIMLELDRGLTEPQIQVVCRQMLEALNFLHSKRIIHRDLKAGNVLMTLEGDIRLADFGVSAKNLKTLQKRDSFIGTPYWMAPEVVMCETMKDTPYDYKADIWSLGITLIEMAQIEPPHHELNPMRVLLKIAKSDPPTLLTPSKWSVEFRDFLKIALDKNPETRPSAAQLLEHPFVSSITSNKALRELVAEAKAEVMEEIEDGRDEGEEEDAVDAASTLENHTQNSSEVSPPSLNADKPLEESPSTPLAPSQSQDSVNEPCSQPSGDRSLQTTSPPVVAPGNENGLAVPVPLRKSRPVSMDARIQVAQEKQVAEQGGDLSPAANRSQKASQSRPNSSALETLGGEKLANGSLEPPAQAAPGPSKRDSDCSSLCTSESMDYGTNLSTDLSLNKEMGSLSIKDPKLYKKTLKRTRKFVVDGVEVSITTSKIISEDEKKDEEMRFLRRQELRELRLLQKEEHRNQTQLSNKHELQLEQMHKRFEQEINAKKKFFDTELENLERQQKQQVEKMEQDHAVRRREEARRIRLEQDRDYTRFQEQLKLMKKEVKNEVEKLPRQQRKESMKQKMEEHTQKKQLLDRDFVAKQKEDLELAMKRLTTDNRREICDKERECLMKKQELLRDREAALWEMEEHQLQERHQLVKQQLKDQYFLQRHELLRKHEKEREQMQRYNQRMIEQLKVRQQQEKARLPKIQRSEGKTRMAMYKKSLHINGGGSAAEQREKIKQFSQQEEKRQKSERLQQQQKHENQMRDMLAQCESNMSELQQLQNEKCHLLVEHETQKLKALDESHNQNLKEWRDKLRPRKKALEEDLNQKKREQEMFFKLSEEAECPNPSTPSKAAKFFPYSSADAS

[13] = molecular target: Casein kinase I isoform gamma-2 (Homo sapiens) (UniProt P78368)
[14] = molecular target: Eukaryotic translation initiation factor 2-alpha kinase 1 (Homo sapiens) (UniProt Q9BQI3)
Sequence of Eukaryotic translation initiation factor 2-alpha kinase 1 (Homo sapiens) (Q9BQI3 whole entry): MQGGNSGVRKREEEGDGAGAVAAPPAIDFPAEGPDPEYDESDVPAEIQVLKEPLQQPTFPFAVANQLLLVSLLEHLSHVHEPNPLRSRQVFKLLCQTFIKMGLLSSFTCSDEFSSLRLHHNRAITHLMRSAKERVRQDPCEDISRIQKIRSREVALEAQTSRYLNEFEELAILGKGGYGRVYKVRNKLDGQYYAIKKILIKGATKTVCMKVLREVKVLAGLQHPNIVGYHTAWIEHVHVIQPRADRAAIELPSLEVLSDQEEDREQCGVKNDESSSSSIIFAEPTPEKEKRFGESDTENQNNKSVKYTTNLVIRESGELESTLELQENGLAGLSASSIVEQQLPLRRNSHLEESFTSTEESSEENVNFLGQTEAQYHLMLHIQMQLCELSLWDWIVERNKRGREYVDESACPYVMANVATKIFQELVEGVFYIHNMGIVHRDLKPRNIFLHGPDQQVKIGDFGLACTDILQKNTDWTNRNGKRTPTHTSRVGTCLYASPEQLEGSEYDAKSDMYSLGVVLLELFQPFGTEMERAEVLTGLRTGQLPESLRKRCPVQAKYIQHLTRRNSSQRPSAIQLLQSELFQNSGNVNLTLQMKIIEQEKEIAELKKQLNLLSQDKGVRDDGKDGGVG

[15] = tested on: Serine/threonine-protein kinase B-raf (Homo sapiens), P15056 [V600E]
[16] = molecular target: Ribosomal protein S6 kinase alpha-6 (Homo sapiens) (UniProt Q9UK32)
Sequence of Ribosomal protein S6 kinase alpha-6 (Homo sapiens) (Q9UK32 whole entry): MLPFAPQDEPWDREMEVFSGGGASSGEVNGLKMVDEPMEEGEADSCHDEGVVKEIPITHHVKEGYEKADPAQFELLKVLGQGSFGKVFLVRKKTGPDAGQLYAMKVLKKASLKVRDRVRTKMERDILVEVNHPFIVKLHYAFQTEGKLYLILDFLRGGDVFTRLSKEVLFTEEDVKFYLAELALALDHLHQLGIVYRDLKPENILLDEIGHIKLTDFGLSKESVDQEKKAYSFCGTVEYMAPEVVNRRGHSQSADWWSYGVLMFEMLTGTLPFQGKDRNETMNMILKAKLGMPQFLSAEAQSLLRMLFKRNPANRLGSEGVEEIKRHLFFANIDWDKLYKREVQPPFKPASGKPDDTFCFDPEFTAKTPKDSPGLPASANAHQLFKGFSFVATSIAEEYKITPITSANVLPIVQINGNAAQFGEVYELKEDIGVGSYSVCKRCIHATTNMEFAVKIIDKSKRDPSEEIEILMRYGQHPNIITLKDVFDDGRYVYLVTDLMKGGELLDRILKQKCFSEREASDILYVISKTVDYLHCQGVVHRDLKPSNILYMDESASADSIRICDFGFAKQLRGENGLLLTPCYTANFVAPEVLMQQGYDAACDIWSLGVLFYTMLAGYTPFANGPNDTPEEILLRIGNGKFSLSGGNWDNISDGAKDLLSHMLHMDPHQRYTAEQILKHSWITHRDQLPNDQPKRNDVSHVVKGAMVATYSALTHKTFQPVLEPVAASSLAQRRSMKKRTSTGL

[17] = molecular target: Wee1-like protein kinase 2 (Homo sapiens) (UniProt P0C1S8)
[18] = molecular target: Calcium/calmodulin-dependent protein kinase type II subunit gamma (Homo sapiens) (UniProt Q13555)
Sequence of Calcium/calmodulin-dependent protein kinase type II subunit gamma (Homo sapiens) (Q13555 whole entry): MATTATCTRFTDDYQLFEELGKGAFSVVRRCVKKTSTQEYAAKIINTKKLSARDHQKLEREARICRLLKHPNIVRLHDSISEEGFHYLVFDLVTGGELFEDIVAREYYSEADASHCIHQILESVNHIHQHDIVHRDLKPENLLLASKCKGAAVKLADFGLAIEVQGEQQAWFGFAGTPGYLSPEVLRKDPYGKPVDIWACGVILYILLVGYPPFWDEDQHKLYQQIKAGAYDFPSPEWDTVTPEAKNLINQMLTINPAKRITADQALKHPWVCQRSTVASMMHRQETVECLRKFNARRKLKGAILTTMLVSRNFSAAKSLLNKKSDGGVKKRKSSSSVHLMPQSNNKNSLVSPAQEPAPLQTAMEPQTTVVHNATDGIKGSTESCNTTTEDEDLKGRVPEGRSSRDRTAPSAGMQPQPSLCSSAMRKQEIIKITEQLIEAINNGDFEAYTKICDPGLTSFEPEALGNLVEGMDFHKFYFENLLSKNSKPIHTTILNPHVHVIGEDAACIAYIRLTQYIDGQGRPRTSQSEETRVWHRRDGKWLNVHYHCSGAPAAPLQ

[19] = molecular target: Muscarinic acetylcholine receptor M5 (Homo sapiens) (UniProt P08912); conditions: Compound concentration 10.0 uM
[20] = tested on: Tyrosine-protein kinase ABL1 (Homo sapiens), P00519 [F317L]
[21] = molecular target: Mitogen-activated protein kinase 9 (Homo sapiens) (UniProt P45984)
[22] = tested on: Receptor-type tyrosine-protein kinase FLT3 (Homo sapiens), P36888 [UNDEFINED MUTATION]
[23] = molecular target: Casein kinase II subunit alpha (Homo sapiens) (UniProt P68400)
[24] = molecular target: Serine/threonine-protein kinase ULK1 (Homo sapiens) (UniProt O75385)
[25] = molecular target: Cyclin-dependent kinase 4 (Homo sapiens) (UniProt P11802)
Sequence of Cyclin-dependent kinase 4 (Homo sapiens) (P11802 whole entry): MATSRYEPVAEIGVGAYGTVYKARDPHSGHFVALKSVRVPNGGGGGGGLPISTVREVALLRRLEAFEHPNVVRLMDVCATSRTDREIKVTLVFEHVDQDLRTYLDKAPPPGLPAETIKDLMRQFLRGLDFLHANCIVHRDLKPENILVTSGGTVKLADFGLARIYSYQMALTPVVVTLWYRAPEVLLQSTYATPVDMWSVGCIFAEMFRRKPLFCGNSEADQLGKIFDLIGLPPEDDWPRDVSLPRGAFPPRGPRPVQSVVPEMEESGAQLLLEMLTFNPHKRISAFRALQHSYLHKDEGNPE

[26] = molecular target: Phosphatidylinositol 4-kinase beta (Homo sapiens) (UniProt Q9UBF8)
[27] = molecular target: Homeodomain-interacting protein kinase 4 (Homo sapiens) (UniProt Q8NE63)
[28] = molecular target: Serine/threonine-protein kinase ICK (Homo sapiens) (UniProt Q9UPZ9)
[29] = molecular target: MAP kinase-activated protein kinase 2 (Homo sapiens) (UniProt P49137)
[30] = molecular target: Tyrosine-protein kinase Fyn (Homo sapiens) (UniProt P06241)
[31] = molecular target: Serine/threonine-protein kinase Sgk3 (Homo sapiens) (UniProt Q96BR1)
Sequence of Serine/threonine-protein kinase Sgk3 (Homo sapiens) (Q96BR1 whole entry): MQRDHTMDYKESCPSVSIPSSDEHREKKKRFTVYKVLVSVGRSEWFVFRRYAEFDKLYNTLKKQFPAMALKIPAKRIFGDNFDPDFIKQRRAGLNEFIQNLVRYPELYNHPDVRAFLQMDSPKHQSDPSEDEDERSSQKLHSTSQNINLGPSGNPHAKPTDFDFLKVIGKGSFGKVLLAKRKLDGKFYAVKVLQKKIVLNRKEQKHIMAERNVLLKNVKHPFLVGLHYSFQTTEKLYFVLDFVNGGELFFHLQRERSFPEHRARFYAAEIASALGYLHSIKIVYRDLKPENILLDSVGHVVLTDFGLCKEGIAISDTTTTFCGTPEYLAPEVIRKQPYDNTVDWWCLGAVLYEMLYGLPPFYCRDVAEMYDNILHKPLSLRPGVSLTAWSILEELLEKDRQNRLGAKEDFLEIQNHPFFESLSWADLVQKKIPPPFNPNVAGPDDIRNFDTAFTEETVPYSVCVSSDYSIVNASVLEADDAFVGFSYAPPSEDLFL

[32] = molecular target: Protein-tyrosine kinase 2-beta (Homo sapiens) (UniProt Q14289)
[33] = molecular target: Tyrosine-protein kinase Lyn (Homo sapiens) (UniProt P07948)
[34] = molecular target: 5-hydroxytryptamine receptor 1D (Homo sapiens) (UniProt P28221); conditions: Compound concentration 10.0 uM
[35] = molecular target: Mitogen-activated protein kinase 4 (Homo sapiens) (UniProt P31152)
[36] = molecular target: Cyclin-dependent kinase 3 (Homo sapiens) (UniProt Q00526)
[37] = molecular target: Death-associated protein kinase 1 (Homo sapiens) (UniProt P53355)
[38] = molecular target: Tyrosine-protein kinase Fes/Fps (Homo sapiens) (UniProt P07332)
[39] = molecular target: Receptor tyrosine-protein kinase erbB-4 (Homo sapiens) (UniProt Q15303)
[40] = molecular target: Serine/threonine-protein kinase 25 (Homo sapiens) (UniProt O00506)
[41] = molecular target: Dual specificity mitogen-activated protein kinase kinase 1 (Homo sapiens) (UniProt Q02750)
[42] = molecular target: Tyrosine-protein kinase JAK1 (Homo sapiens) (UniProt P23458)
[43] = molecular target: Serine/threonine-protein kinase 17B (Homo sapiens) (UniProt O94768)
Angiopoietin-1 receptor = Angiopoietin-1 receptor (Homo sapiens, UniProt Q02763); test: NanoBRET assay (SGC Frankfurt) with TEK
Sequence of Angiopoietin-1 receptor (Q02763 whole entry): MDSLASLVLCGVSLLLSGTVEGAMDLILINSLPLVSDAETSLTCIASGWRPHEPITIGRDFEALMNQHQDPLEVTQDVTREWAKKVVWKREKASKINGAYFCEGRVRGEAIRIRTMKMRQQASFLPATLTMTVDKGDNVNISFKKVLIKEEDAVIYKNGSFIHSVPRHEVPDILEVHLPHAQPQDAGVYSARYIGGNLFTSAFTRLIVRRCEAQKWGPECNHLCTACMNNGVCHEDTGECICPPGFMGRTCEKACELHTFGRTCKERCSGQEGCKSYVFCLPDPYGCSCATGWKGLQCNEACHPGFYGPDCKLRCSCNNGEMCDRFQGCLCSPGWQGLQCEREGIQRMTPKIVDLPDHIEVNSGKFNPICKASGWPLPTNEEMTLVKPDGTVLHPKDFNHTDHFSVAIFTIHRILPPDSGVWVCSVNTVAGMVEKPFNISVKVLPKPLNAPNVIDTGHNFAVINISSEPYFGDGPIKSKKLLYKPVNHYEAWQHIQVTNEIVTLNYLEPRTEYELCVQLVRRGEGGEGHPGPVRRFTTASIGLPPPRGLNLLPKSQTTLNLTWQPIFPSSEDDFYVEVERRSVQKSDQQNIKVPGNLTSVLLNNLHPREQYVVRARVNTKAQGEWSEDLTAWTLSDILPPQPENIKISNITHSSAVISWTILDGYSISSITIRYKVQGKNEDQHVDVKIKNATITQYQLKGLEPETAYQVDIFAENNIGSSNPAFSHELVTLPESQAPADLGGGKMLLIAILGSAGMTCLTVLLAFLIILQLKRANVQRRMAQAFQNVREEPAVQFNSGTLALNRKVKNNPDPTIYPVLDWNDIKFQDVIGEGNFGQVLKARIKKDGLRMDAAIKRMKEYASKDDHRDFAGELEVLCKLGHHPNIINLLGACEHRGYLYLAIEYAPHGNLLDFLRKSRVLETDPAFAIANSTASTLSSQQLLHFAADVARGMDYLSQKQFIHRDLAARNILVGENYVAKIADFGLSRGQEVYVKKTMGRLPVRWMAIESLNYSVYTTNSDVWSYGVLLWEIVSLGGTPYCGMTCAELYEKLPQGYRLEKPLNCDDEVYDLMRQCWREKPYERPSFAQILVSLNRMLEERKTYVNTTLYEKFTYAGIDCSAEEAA

[44] = molecular target: Cyclin-dependent kinase 11A (Homo sapiens) (UniProt Q9UQ88)
[45] = Compound concentration 1000.0 nM
[46] = Compound concentration 100.0 nM

Sequence of Sigma non-opioid intracellular receptor 1 (Homo sapiens) (Q99720 whole entry): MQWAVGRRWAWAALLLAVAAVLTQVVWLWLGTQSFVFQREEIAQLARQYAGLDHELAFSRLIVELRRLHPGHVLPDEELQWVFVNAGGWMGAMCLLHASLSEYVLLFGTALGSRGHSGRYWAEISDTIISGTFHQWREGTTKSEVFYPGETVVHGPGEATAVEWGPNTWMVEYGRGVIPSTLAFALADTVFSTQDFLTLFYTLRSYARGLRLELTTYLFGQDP

Cc1cc(NC(=O)c2cccc(S(F)(F)(F)(F)F)c2)cc(-n2ccn3nc(-c4cccnc4)cc23)c1 [BAY-309]
inhibition [1]: 19.3% | residual activity [2, 45]: 90.8% | residual activity [3, 45]: 91.8% | residual activity [4, 45]: 83.2% | residual activity [5, 45]: 82.3% | residual activity [6, 45]: 95.8% | residual activity [7, 45]: 87.6% | residual activity [8, 45]: 97% | residual activity [9, 45]: 59.4% | residual activity [10, 45]: 100% | residual activity [11, 45]: 61.7% | residual activity [12, 45]: 26.8% | residual activity [13, 45]: 95.4% | residual activity [14, 45]: 100% | residual activity [15, 45]: 24.4% | residual activity [16, 45]: 100% | residual activity [17, 45]: 100% | residual activity [18, 45]: 100% | inhibition [19]: 8.74% | residual activity [20, 45]: 72.9% | residual activity [21, 45]: 76.9% | residual activity [22, 45]: 100% | residual activity [23, 45]: 66.7% | residual activity [24, 45]: 100% | residual activity [25, 45]: 79.3% | residual activity [26, 45]: 78.6% | residual activity [27, 45]: 100% | residual activity [28, 45]: 64.2% | residual activity [29, 45]: 100% | residual activity [30, 45]: 81.3% | residual activity [31, 45]: 72.1% | residual activity [32, 45]: 100% | residual activity [33, 45]: 100% | inhibition [34]: 15.4% | residual activity [35, 45]: 50.4% | residual activity [36, 45]: 100% | residual activity [37, 45]: 100% | residual activity [38, 45]: 100% | residual activity [39, 45]: 98.1% | residual activity [40, 45]: 59.5% | residual activity [41, 45]: 100% | residual activity [42, 45]: 28.7% | residual activity [43, 45]: 100% | EC50 (Angiopoietin-1 receptor): 3.3 µM (not active) | IC50 (Angiopoietin-1 receptor): 1.1 µM (not active) | residual activity [44, 45]: 95.4%

Cc1cc(C)c(-n2ccn3nc(-c4cccnc4)cc23)cc1NC(=O)c1cc(C#N)cc(S(F)(F)(F)(F)F)c1 [BAY-826]
inhibition [1]: -4.84% | residual activity [2, 46]: 98.6% | residual activity [3, 46]: 70.4% | residual activity [4, 46]: 100% | residual activity [5, 46]: 77.6% | residual activity [6, 46]: 93.1% | residual activity [7, 46]: 66.2% | residual activity [8, 46]: 93.9% | residual activity [9, 46]: 100% | residual activity [10, 46]: 82.8% | residual activity [11, 46]: 88.1% | residual activity [12, 46]: 1.8% | residual activity [13, 46]: 77.6% | residual activity [14, 46]: 100% | residual activity [15, 46]: 100% | residual activity [16, 46]: 74.9% | residual activity [17, 46]: 77.4% | residual activity [18, 46]: 93.4% | inhibition [19]: 16.1% | residual activity [20, 46]: 63.3% | residual activity [21, 46]: 66.1% | residual activity [22, 46]: 69.3% | residual activity [23, 46]: 74.2% | residual activity [24, 46]: 100% | residual activity [25, 46]: 82.4% | residual activity [26, 46]: 64.7% | residual activity [27, 46]: 95.6% | residual activity [28, 46]: 74.1% | residual activity [29, 46]: 100% | residual activity [30, 46]: 97.5% | residual activity [31, 46]: 81.5% | residual activity [32, 46]: 81.4% | residual activity [33, 46]: 46% | inhibition [34]: 9.27% | residual activity [35, 46]: 86.3% | residual activity [36, 46]: 92.4% | residual activity [37, 46]: 94.1% | residual activity [38, 46]: 84.6% | residual activity [39, 46]: 96.3% | residual activity [40, 46]: 79.1% | residual activity [41, 46]: 76.2% | residual activity [42, 46]: 93.1% | residual activity [43, 46]: 91.4% | EC50 (Angiopoietin-1 receptor): 0.0017 µM (active) | IC50 (Angiopoietin-1 receptor): 0.0007 µM (active) | residual activity [44, 46]: 89.9%
